Experimental data taken from US20240360082A1, “SUBSTITUTED PYRIDONE COMPOUNDS USEFUL TO TREAT ORTH[…]” (priority 2021, published 2024).
Where two headings read alike, the source gives them in different places.

Target: influenza A virus minigenome (PB2, PB1, PA, NP proteins) (UniProt P04665)
Type: cell-based

Sequence of influenza A virus minigenome (PB2, PB1, PA, NP proteins) (P04665 whole entry): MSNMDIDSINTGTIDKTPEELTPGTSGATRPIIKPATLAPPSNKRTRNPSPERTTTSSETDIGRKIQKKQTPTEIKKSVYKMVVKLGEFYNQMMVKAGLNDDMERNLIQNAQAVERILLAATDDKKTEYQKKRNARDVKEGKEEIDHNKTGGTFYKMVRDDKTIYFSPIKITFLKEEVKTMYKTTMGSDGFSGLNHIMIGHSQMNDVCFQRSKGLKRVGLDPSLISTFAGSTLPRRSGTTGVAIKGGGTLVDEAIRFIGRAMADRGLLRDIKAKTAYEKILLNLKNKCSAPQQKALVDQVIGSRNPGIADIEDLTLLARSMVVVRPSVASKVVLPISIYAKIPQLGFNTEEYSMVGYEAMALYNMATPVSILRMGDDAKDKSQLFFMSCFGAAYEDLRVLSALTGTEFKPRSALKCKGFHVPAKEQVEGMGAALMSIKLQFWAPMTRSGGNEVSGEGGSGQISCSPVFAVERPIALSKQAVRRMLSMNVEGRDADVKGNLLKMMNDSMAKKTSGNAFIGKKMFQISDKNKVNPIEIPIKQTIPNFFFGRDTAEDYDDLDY

Structure (SMILES)	IC50 (read-out: RNP_ Hubei B IC50)	IC50 (read-out: RNP_Hubei B)
CCc1cc(COc2ccc(-c3cc(C(N)=O)c(=O)[nH]c3C(F)(F)F)cc2)n(C)n1 [Example 262, 5-(4-((3-ethyl-1-methyl-1H-pyrazol-5-yl)methoxy)phenyl)-2-oxo-6-(trifluoromethyl)-1,2-dihydropyridine-3-carboxamide]	25 to 50 µM	
Cn1nc(C2CC2)cc1COc1ccc(-c2cc(C(N)=O)c(=O)[nH]c2C(F)(F)F)cc1 [Example 263, 5-(4-((3-cyclopropyl-1-methyl-1H-pyrazol-5-yl)methoxy)phenyl)-2-oxo-6-(trifluoromethyl)-1,2-dihydropyridine-3-carboxamide]	25 to 50 µM	
NC(=O)c1cc(-c2ccc(OCc3ccnn3CC3CC3)cc2)c(C(F)(F)F)[nH]c1=O [Example 265, 5-(4-((1-(cyclopropylmethyl)-1H-pyrazol-5-yl)methoxy)phenyl)-2-oxo-6-(trifluoromethyl)-1,2-dihydropyridine-3-carboxamide]	25 to 50 µM	
NC(=O)c1cc(-c2ccc(OCc3cocn3)cc2)c(C(F)(F)F)[nH]c1=O [Example 266, 5-(4-(oxazol-4-ylmethoxy)phenyl)-2-oxo-6-(trifluoromethyl)-1,2-dihydropyridine-3-carboxamide]	25 to 50 µM	
NC(=O)c1cc(-c2ccc(OCc3cnco3)cc2)c(C(F)(F)F)[nH]c1=O [Example 267, 5-(4-(oxazol-5-ylmethoxy)phenyl)-2-oxo-6-(trifluoromethyl)-1,2-dihydropyridine-3-carboxamide]	25 to 50 µM	
NC(=O)c1cc(-c2ccc(OCc3cc(C4CC4)on3)cc2)c(C(F)(F)F)[nH]c1=O [Example 268, 5-(4-((5-cyclopropylisoxazol-3-yl)methoxy)phenyl)-2-oxo-6-(trifluoromethyl)-1,2-dihydropyridine-3-carboxamide]	25 to 50 µM	
Cc1oncc1COc1ccc(-c2cc(C(N)=O)c(=O)[nH]c2C(F)(F)F)cc1 [Example 269, 5-(4-((5-methylisoxazol-4-yl)methoxy)phenyl)-2-oxo-6-(trifluoromethyl)-1,2-dihydropyridine-3-carboxamide]	25 to 50 µM	
Cc1onc(-c2ccncc2)c1COc1ccc(-c2cc(C(N)=O)c(=O)[nH]c2C(F)(F)F)cc1 [Example 270, 5-(4-((5-methyl-3-(pyridin-4-yl)isoxazol-4-yl)methoxy)phenyl)-2-oxo-6-(trifluoromethyl)-1,2-dihydropyridine-3-carboxamide]	25 to 50 µM	
Cc1ncc(COc2ccc(-c3cc(C(N)=O)c(=O)[nH]c3C(F)(F)F)cc2)s1 [Example 271, 5-(4-((2-methylthiazol-5-yl)methoxy)phenyl)-2-oxo-6-(trifluoromethyl)-1,2-dihydropyridine-3-carboxamide]	25 to 50 µM	
Cc1ncsc1COc1ccc(-c2cc(C(N)=O)c(=O)[nH]c2C(F)(F)F)cc1 [Example 272, 5-(4-((4-methylthiazol-5-yl)methoxy)phenyl)-2-oxo-6-(trifluoromethyl)-1,2-dihydropyridine-3-carboxamide]	25 to 50 µM	
Cc1nnsc1COc1ccc(-c2cc(C(N)=O)c(=O)[nH]c2C(F)(F)F)cc1 [Example 273, 5-(4-((4-methyl-1,2,3-thiadiazol-5-yl)methoxy)phenyl)-2-oxo-6-(trifluoromethyl)-1,2-dihydropyridine-3-carboxamide]	10 to 25 µM	
Cc1cncc(COc2ccc(-c3cc(C(N)=O)c(=O)[nH]c3C(F)(F)F)cc2)n1 [Example 283, 5-(4-((6-methylpyrazin-2-yl)methoxy)phenyl)-2-oxo-6-(trifluoromethyl)-1,2-dihydropyridine-3-carboxamide]	5 to 10 µM	
NC(=O)c1cc(-c2ccc(OCc3cnc4ccccn34)cc2)c(C(F)(F)F)[nH]c1=O [Example 286, 5-(4-(imidazo[1,2-a]pyridin-3-ylmethoxy)phenyl)-2-oxo-6-(trifluoromethyl)-1,2-dihydropyridine-3-carboxamide]	25 to 50 µM	
CC1(C)CC[C@@H](COc2ccc(-c3cc(C(N)=O)c(=O)[nH]c3C(F)(F)F)cc2)O1 [Example 300, (S)-5-(4-((5,5-dimethyltetrahydrofuran-2-yl)methoxy)phenyl)-2-oxo-6-(trifluoromethyl)-1,2-dihydropyridine-3-carboxamide]	10 to 25 µM	
CC(C)(C)OC(=O)N1CCC(COc2ccc(-c3cc(C(N)=O)c(=O)[nH]c3C(F)(F)F)cc2)C1 (centres unmarked) [Example 302, Tert-butyl 3-((4-(5-carbamoyl-6-oxo-2-(trifluoromethyl)-1,6-dihydropyridin-3-yl)phenoxy)methyl)pyrrolidine-1-carboxylate]	25 to 50 µM	
CC1CN(C(=O)OC(C)(C)C)CC1COc1ccc(-c2cc(C(N)=O)c(=O)[nH]c2C(F)(F)F)cc1 (centres unmarked) [Example 303, Tert-butyl 3-((4-(5-carbamoyl-6-oxo-2-(trifluoromethyl)-1,6-dihydropyridin-3-yl)phenoxy)methyl)-4-methylpyrrolidine-1-carboxylate]	10 to 25 µM	

Structure (SMILES)	IC50 (read-out: RNP_ Hubei B IC50)	IC50 (read-out: RNP_Hubei B)
CC(C)(C)OC(=O)N1C[C@H](F)C[C@H]1COc1ccc(-c2cc(C(N)=O)c(=O)[nH]c2C(F)(F)F)cc1 [Example 305, Tert-butyl (2S,4R)-2-((4-(5-carbamoyl-6-oxo-2-(trifluoromethyl)-1,6-dihydropyridin-3-yl)phenoxy)methyl)-4-fluoropyrrolidine-1-carboxylate]	25 to 50 µM	
CC(C)(C)OC(=O)N1C[C@@H](F)C[C@H]1COc1ccc(-c2cc(C(N)=O)c(=O)[nH]c2C(F)(F)F)cc1 [Example 306, tert-butyl (2S,4S)-2-((4-(5-carbamoyl-6-oxo-2-(trifluoromethyl)-1,6-dihydropyridin-3-yl)phenoxy)methyl)-4-fluoropyrrolidine-1-carboxylate]	5 to 10 µM	
NC(=O)c1cc(-c2ccc(OCC3COCCOC3)cc2)c(C(F)(F)F)[nH]c1=O [Example 320, 5-(4-((1,4-dioxepan-6-yl)methoxy)phenyl)-2-oxo-6-(trifluoromethyl)-1,2-dihydropyridine-3-carboxamide]	5 to 10 µM	
CC1(COc2ccc(-c3cc(C(N)=O)c(=O)[nH]c3C(F)(F)F)cc2)COCCOC1 [Example 321, 5-(4-((6-methyl-1,4-dioxepan-6-yl)methoxy)phenyl)-2-oxo-6-(trifluoromethyl)-1,2-dihydropyridine-3-carboxamide]	5 to 10 µM	
NC(=O)c1cc(-c2ccc(OC[C@H]3COC[C@@H](C4CC4)O3)cc2)c(C(F)(F)F)[nH]c1=O [Example 325, 5-(4-(((2R,6R)-6-cyclopropyl-1,4-dioxan-2-yl)methoxy)phenyl)-2-oxo-6-(trifluoromethyl)-1,2-dihydropyridine-3-carboxamide]	10 to 25 µM	
NC(=O)c1cc(-c2ccc(OC[C@H]3COC[C@H](C4CC4)O3)cc2)c(C(F)(F)F)[nH]c1=O [Example 327, 5-(4-(((2R,6S)-6-cyclopropyl-1,4-dioxan-2-yl)methoxy)phenyl)-2-oxo-6-(trifluoromethyl)-1,2-dihydropyridine-3-carboxamide]	5 to 10 µM	
C[C@@H]1COC[C@H](COc2ccc(-c3cc(C(N)=O)c(=O)[nH]c3C(F)(F)F)cc2)O1 [Example 328, 5-(4-(((2R,6R)-6-methyl-1,4-dioxan-2-yl)methoxy)phenyl)-2-oxo-6-(trifluoromethyl)-1,2-dihydropyridine-3-carboxamide]	10 to 25 µM	
C[C@@H]1COC[C@@H](COc2ccc(-c3cc(C(N)=O)c(=O)[nH]c3C(F)(F)F)cc2)O1 [Example 329, 5-(4-(((2S,6R)-6-methyl-1,4-dioxan-2-yl)methoxy)phenyl)-2-oxo-6-(trifluoromethyl)-1,2-dihydropyridine-3-carboxamide]	25 to 50 µM	
C[C@H]1COC[C@@H](COc2ccc(-c3cc(C(N)=O)c(=O)[nH]c3C(F)(F)F)cc2)O1 [Example 330, 5-(4-(((2S,6S)-6-methyl-1,4-dioxan-2-yl)methoxy)phenyl)-2-oxo-6-(trifluoromethyl)-1,2-dihydropyridine-3-carboxamide]	25 to 50 µM	
C[C@H]1COC[C@H](COc2ccc(-c3cc(C(N)=O)c(=O)[nH]c3C(F)(F)F)cc2)O1 [Example 331, 5-(4-(((2R,6S)-6-methyl-1,4-dioxan-2-yl)methoxy)phenyl)-2-oxo-6-(trifluoromethyl)-1,2-dihydropyridine-3-carboxamide]	10 to 25 µM	
NC(=O)c1cc(-c2ccc(OCC3COCc4c(C5CC5)nnn43)cc2)c(C(F)(F)F)[nH]c1=O (centres unmarked) [Example 381, 5-(4-((3-cyclopropyl-6,7-dihydro-4H-[1,2,3]triazolo[5,1-c][1,4]oxazin-7-yl)methoxy)phenyl)-2-oxo-6-(trifluoromethyl)-1,2-dihydropyridine-3-carboxamide]	5 to 10 µM	
COC(C)(C)C1COCC(COc2ccc(-c3cc(C(N)=O)c(=O)[nH]c3C(F)(F)F)cc2)O1 (centres unmarked) [Example 382, 5-(4-((6-(2-methoxypropan-2-yl)-1,4-dioxan-2-yl)methoxy)phenyl)-2-oxo-6-(trifluoromethyl)-1,2-dihydropyridine-3-carboxamide]	5 to 10 µM	
NC(=O)c1cc(-c2ccc(OCC3COCC(CO)O3)cc2)c(C(F)(F)F)[nH]c1=O (centres unmarked) [Example 384, 5-(4-((6-(hydroxymethyl)-1,4-dioxan-2-yl)methoxy)phenyl)-2-oxo-6-(trifluoromethyl)-1,2-dihydropyridine-3-carboxamide]	5 to 10 µM	
NC(=O)c1cc(-c2ccc(OCC3(F)COCCO3)cc2)c(C(F)(F)F)[nH]c1=O (centres unmarked) [Example 388, 5-(4-((2-fluoro-1,4-dioxan-2-yl)methoxy)phenyl)-2-oxo-6-(trifluoromethyl)-1,2-dihydropyridine-3-carboxamide]	5 to 10 µM	
NC(=O)c1cc(-c2ccc(OC(F)(F)C3COCCO3)cc2)c(C(F)(F)F)[nH]c1=O (centres unmarked) [Example 389, 5-(4-((1,4-dioxan-2-yl)difluoromethoxy)phenyl)-2-oxo-6-(trifluoromethyl)-1,2-dihydropyridine-3-carboxamide]		5 to 10 µM
NC(=O)c1cc(-c2ccc(OCC3CO[C@@H]4[C@H](O3)C4(F)F)cc2)c(C(F)(F)F)[nH]c1=O (stereo partly drawn) [Example 390, 5-(4-((cis-7,7-difluoro-2,5-dioxabicyclo[4.1.0]heptan-3-yl)methoxy)phenyl)-2-oxo-6-(trifluoromethyl)-1,2-dihydropyridine-3-carboxamide]	1 to 5 µM	
